In patent US6734139B1, “N-aryl-uracile-based herbicides” (priority 1999, dated 2004):
“And” between values parts separate entries of the source, which are not always exact repeats. Equal entries are not always repeated.

Columns and labels:
Type in all cases: in vivo
[1] = test system: Echinochloa; assay: Pre-emergence test (herbicidal action, Colby): Echinochloa
[2] = test system: Bromus; assay: Pre-emergence test (herbicidal action, Colby): Bromus
[3] = test system: Polygonum; assay: Pre-emergence test (herbicidal action, Colby): Polygonum
[4] = test system: Ipomoea; assay: Pre-emergence test (herbicidal action, Colby): Ipomoea
[5] = test system: Alopecurus; assay: Pre-emergence test (herbicidal action, Colby): Alopecurus
[6] = test system: Datura; assay: Pre-emergence test (herbicidal action, Colby): Datura
[7] = test system: Abutilon; assay: Pre-emergence test (herbicidal action, Colby): Abutilon; conditions: for pest or weed control at 30 g/ha: 30 g of a.i./ha; for pest or weed control at 30 g/ha / pest or weed control at 60 g/ha: read-out: Abutilon; for pest or weed control at 60 g/ha: 60 g of a.i./ha; for pest or weed control at 125 g/ha: 125 g of a.i./ha
[8] = test system: Chenopodium; assay: Pre-emergence test (herbicidal action, Colby): Chenopodium
[9] = test system: Galium; assay: Pre-emergence test (herbicidal action, Colby): Galium
[10] = test system: weeds; assay: Pre-emergence test (herbicidal action against weeds, Colby)
From the text: (§1) The expected action for a given combination of two herbicides can be calculated as follows (cf. COLBY, S. R.: “Calculating synergistic and antagonistic responses of herbicide combinations”, Weeds 15, Pages 20-22, 1967):
(§2) If the actual damage exceeds the calculated value, the combination has a superadditive effect, that is to say a synergistic effect.
The theoretically expected activity for a given combination of three herbicides can likewise be found in the literature mentioned above.
Solvent: 2 to 3 parts by weight of acetone or N,N-dimethyl-formamide
Emulsifier: 1 part by weight of alkylaryl polyglycol ether
(§3) To produce a suitable preparation of active compound, 1 part by weight of active compound is mixed with the stated amount of solvent, the stated amount of emulsifier is added and the concentrate is diluted with water to the desired concentration. Formulated products are dissolved in water and then diluted with water to the desired concentration.
(§4) The solutions of the other mixing components (active compounds or safeners) are prepared analogously. The separately prepared solutions of the various mixing components are then combined and, if appropriate, additional substances (formulation auxiliaries, additives, etc.) are added and, if appropriate, water is added to prepare the desired dilution.
Seeds of the test plants are sown in standard soil. After 24 hours, the soil is sprayed with the preparation of active compound such that the particular amount of active compound desired in each case is applied per unit area. The concentration of active compound in the spray liquor is chosen such that the particular amount of active compound desired in each case is applied in 500 litres of water per hectare. The containers with the test plants are kept in a greenhouse at controlled temperature and controlled illumination until evaluation.
(§5) After three weeks, the degree of damage to the plants is rated in % damage in comparison to the development of the untreated control. The figures denote
(§6) 0%=no effect/no damage (like untreated control)

[11] = test system: Digitaria; assay: Pre-emergence test (herbicidal action, Colby): Digitaria
[12] = test system: Veronica; assay: Post-emergence test (herbicidal action, Colby): Veronica
From the text: as §1, §2, §3, §4, §5, §6

[13] = test system: Amaranthus; assay: Post-emergence test (herbicidal action, Colby): Amaranthus
[14] = test system: Galium; assay: Post-emergence test (herbicidal action, Colby): Galium
[15] = test system: Solanum; assay: Post-emergence test (herbicidal action, Colby): Solanum
From the text: as §1, §2, §3, §4, §5, §6

[16] = test system: Matricaria; assay: Post-emergence test (herbicidal action, Colby): Matricaria; conditions: 125 g of a.i./ha
[17] = test system: Abutilon; assay: Post-emergence test (herbicidal action, Colby): Abutilon; conditions: 60 g of a.i./ha
[18] = test system: Chenopodium; assay: Post-emergence test (herbicidal action, Colby): Chenopodium; conditions: 60 g of a.i./ha
[19] = test system: Datura; assay: Post-emergence test (herbicidal action, Colby): Datura
[20] = test system: Polygonum; assay: Post-emergence test (herbicidal action, Colby): Polygonum; conditions: 125 g of a.i./ha
[21] = test system: Setaria; assay: Pre-emergence test (herbicidal action, Colby): Setaria
[22] = test system: Cassia; assay: Pre-emergence test (herbicidal action, Colby): Cassia
[23] = test system: Lolium; assay: Pre-emergence test (herbicidal action, Colby): Lolium
[24] = test system: Eriochloa; assay: Pre-emergence test (herbicidal action, Colby): Eriochloa
[25] = test system: Matricaria; assay: Pre-emergence test (herbicidal action, Colby): Matricaria; conditions: 125 g of a.i./ha
[26] = test system: Stellaria; assay: Pre-emergence test (herbicidal action, Colby): Stellaria
[27] = test system: Viola; assay: Pre-emergence test (herbicidal action, Colby): Viola; conditions: 125 g of a.i./ha

Work on `CSc1nnc(C(C)(C)C)c(=O)n1N` [metribuzin, 4-amino-6-tert-butyl-3-methylthio-1,2,4-triazin-5(4H)-one] yielded an Echinochloa ([1]; 60 g of a.i./ha) of 0%, an Echinochloa ([1]; 125 g of a.i./ha) of 80% and a Bromus ([2]; 30 g of a.i./ha) of 0%. It also gave a Polygonum ([3]; 60 g of a.i./ha) of 40%, an Ipomoea ([4]; 30 g of a.i./ha) of 0% and an Alopecurus ([5]; 30 g of a.i./ha) of 0%. For the same compound, the Datura ([6]; 30 g of a.i./ha) was 20%, the Datura ([6]; 60 g of a.i./ha) was 30% and the pest or weed control at 30 g/ha [7] was 80%. For the same compound, the pest or weed control at 60 g/ha [7] was 90%, the Chenopodium ([8]; 60 g of a.i./ha) was 50% and the Galium ([9]; 60 g of a.i./ha) was 0%. The “Chenopodium (pre-emergence test)” value ([10]; Table 23, 30 g of a.i./ha) was 30, the “Lolium (pre-emergence test)” value ([10]; Table 23, 30 g of a.i./ha) was 0 and the “Setaria (pre-emergence test)” value ([10]; Table 23, 30 g of a.i./ha) was 20. The “Eriochloa (pre-emergence test)” value ([10]; Table 23, 60 g of a.i./ha) was 0, the “Galium (pre-emergence test)” value ([10]; Table 23, 60 g of a.i./ha) was 20 and the “Ipomoea (pre-emergence test)” value ([10]; Table 23, 60 g of a.i./ha) was 0. For the same compound, the “Setaria (pre-emergence test)” value ([10]; Table 23, 60 g of a.i./ha) was 80, the “Cassia (pre-emergence test)” value ([10]; Table A26, 60 g of a.i./ha) was 80 and the “Echinochloa (pre-emergence test)” value ([10]; Table A26, 60 g of a.i./ha) was 30. For the same compound, the “Matricaria (pre-emergence test)” value ([10]; Table A26, 60 g of a.i./ha) was 60, the “Avena (pre-emergence test)” value ([10]; Table A26, 125 g of a.i./ha) was 40 and the “Digitaria (pre-emergence test)” value ([10]; Table A26, 125 g of a.i./ha) was 90. For the same compound, the “Echinochloa (pre-emergence test)” value ([10]; Table A26, 125 g of a.i./ha) was 80, the “Lolium (pre-emergence test)” value ([10]; Table A26, 125 g of a.i./ha) was 70 and the “Matricaria (pre-emergence test)” value ([10]; Table A26, 125 g of a.i./ha) was 70. The “Setaria (pre-emergence test)” value ([10]; Table A26, 125 g of a.i./ha) was 80, the Digitaria ([11]; 30 g of a.i./ha) was 30% and the Digitaria ([11]; 60 g of a.i./ha) was 80%.
Compound `Cc1nn(-c2cc(NS(C)(=O)=O)c(Cl)cc2Cl)c(=O)n1C(F)F` [sulfentrazone, 2-(2,4-dichloro-5-methylsulphonylamino-phenyl)-4-difluoromethyl-5-methyl-2,4-dihydro-3H-1,2,4-triazol-3-one] has a Veronica ([12]; 60 g of a.i./ha) of 0%, a Veronica ([12]; 125 g of a.i./ha) of 20% and an Amaranthus ([13]; 60 g of a.i./ha) of 90%. The Galium ([14]; 60 g of a.i./ha) was 0%, the Solanum ([15]; 60 g of a.i./ha) was 0% and the Solanum ([15]; 125 g of a.i./ha) was 0%. For the same compound, the Matricaria [16] was 0%, the Abutilon [17] was 0% and the Chenopodium [18] was 60%. For the same compound, the Datura ([19]; 60 g of a.i./ha) was 0%, the Datura ([19]; 125 g of a.i./ha) was 0% and the Polygonum [20] was 50%.
With `O=C(O)COc1ccc(Cl)cc1Cl` [2,4-D, 2,4-dichloro-phenoxyacetic acid] the Amaranthus ([13]; 86 g of a.i./ha) was 30% and the Galium ([14]; 86 g of a.i./ha) was 0%.
For `CC(C)c1nn(C(=O)NC(C)(C)C)c(=O)n1N` [amicarbazone, 4-amino-N-(1,1-dimethyl-ethyl)-4,5-dihydro-3-(1-methyl-ethyl)-5-oxo-1H-1,2,4-triazole-1-carboxamide], the Echinochloa ([1]; 60 g of a.i./ha) was 0%, the Setaria ([21]; 30 g of a.i./ha) was 20% and the Setaria ([21]; 60 g of a.i./ha) was 20% and 30%. It also gave a Polygonum ([3]; 60 g of a.i./ha) of 80%, an Ipomoea ([4]; 30 g of a.i./ha) of 50% and an Alopecurus ([5]; 60 g of a.i./ha) of 20%. The Datura ([6]; 30 g of a.i./ha) was 0%, the Datura ([6]; 60 g of a.i./ha) was 20% and the pest or weed control at 30 g/ha [7] was 20%. It also gave a pest or weed control at 60 g/ha [7] of 99%, a Cassia ([22]; 30 g of a.i./ha) of 70% and a Lolium ([23]; 30 g of a.i./ha) of 0%. The Chenopodium ([8]; 30 g of a.i./ha) was 50%, the Eriochloa ([24]; 30 g of a.i./ha) was 30% and the Eriochloa ([24]; 60 g of a.i./ha) was 70%. The “Cassia (pre-emergence test)” value ([10]; Table A22, 60 g of a.i./ha) was 80, the “Datura (pre-emergence test)” value ([10]; Table A22, 125 g of a.i./ha) was 50 and the “Polygonum (pre-emergence test)” value ([10]; Table A22, 125 g of a.i./ha) was 90. It also gave a Digitaria ([11]; 30 g of a.i./ha) of 20% and a Digitaria ([11]; 60 g of a.i./ha) of 60%.
For `CC(C)N(C(=O)COc1nnc(C(F)(F)F)s1)c1ccc(F)cc1` [flufenacet, N-(4-fluoro-phenyl)-N-i-propyl-2-(5-trifluoromethyl-1,3,4-thiadiazol-2-yl-oxy)-acetamide], the Echinochloa ([1]; 60 g of a.i./ha) was 90%, the Setaria ([21]; 30 g of a.i./ha) was 70% and the Setaria ([21]; 60 g of a.i./ha) was 80% and 90%. For the same compound, the Bromus ([2]; 60 g of a.i./ha) was 30%, the Polygonum ([3]; 30 g of a.i./ha) was 20% and the Polygonum ([3]; 60 g of a.i./ha) was 30%. The Ipomoea ([4]; 30 g of a.i./ha) was 30%, the Ipomoea ([4]; 60 g of a.i./ha) was 30% and the Ipomoea ([4]; 125 g of a.i./ha) was 30%. The Alopecurus ([5]; 60 g of a.i./ha) was 70%, the Datura ([6]; 30 g of a.i./ha) was 20% and the Datura ([6]; 60 g of a.i./ha) was 40%. The pest or weed control at 30 g/ha [7] was 20%, the pest or weed control at 60 g/ha [7] was 20% and the pest or weed control at 125 g/ha [7] was 20%. The Cassia ([22]; 60 g of a.i./ha) was 60%, the Lolium ([23]; 60 g of a.i./ha) was 80% and the Chenopodium ([8]; 30 g of a.i./ha) was 30%. The Chenopodium ([8]; 60 g of a.i./ha) was 50%, the Eriochloa ([24]; 30 g of a.i./ha) was 80% and the Galium ([9]; 30 g of a.i./ha) was 30%. For the same compound, the “Chenopodium (pre-emergence test)” value ([10]; Table 23, 30 g of a.i./ha) was 30, the “Ipomoea (pre-emergence test)” value ([10]; Table 23, 30 g of a.i./ha) was 50 and the “Lolium (pre-emergence test)” value ([10]; Table 23, 30 g of a.i./ha) was 70. The “Setaria (pre-emergence test)” value ([10]; Table 23, 30 g of a.i./ha) was 70, the “Chenopodium (pre-emergence test)” value ([10]; Table 23, 60 g of a.i./ha) was 50 and the “Eriochloa (pre-emergence test)” value ([10]; Table 23, 60 g of a.i./ha) was 90. For the same compound, the “Galium (pre-emergence test)” value ([10]; Table 23, 60 g of a.i./ha) was 40, the “Setaria (pre-emergence test)” value ([10]; Table 23, 60 g of a.i./ha) was 90 and the “Chenopodium (pre-emergence test)” value ([10]; Table A21, 60 g of a.i./ha) was 50. The “Ipomoea (pre-emergence test)” value ([10]; Table A21, 60 g of a.i./ha) was 70, the “Polygonum (pre-emergence test)” value ([10]; Table A21, 60 g of a.i./ha) was 0 and the “Datura (pre-emergence test)” value ([10]; Table A21, 125 g of a.i./ha) was 50. The “Ipomoea (pre-emergence test)” value ([10]; Table A21, 125 g of a.i./ha) was 80, the “Polygonum (pre-emergence test)” value ([10]; Table A21, 125 g of a.i./ha) was 30 and the Matricaria [25] was 60%. For the same compound, the Stellaria ([26]; 60 g of a.i./ha) was 50%, the Stellaria ([26]; 125 g of a.i./ha) was 70% and the Digitaria ([11]; 30 g of a.i./ha) was 80%. The Digitaria ([11]; 60 g of a.i./ha) was 80%.
In the case of `CCc1cccc(C)c1N(C(=O)CCl)[C@@H](C)COC` [metolachlor, (S)-2-chloro-N-(2-ethyl-6-methyl-phenyl)-N-(2-methoxy-1-methylethyl)-acetamide], the Ipomoea ([4]; 250 g of a.i./ha) is reported as 30%, the pest or weed control at 125 g/ha [7] is reported as 30% and the pest or weed control at 250 g/ha ([7]; 250 g of a.i./ha) is reported as 30%. It also gave a Viola [27] of 50%, a Stellaria ([26]; 125 g of a.i./ha) of 30% and a Stellaria ([26]; 250 g of a.i./ha) of 80%. The Digitaria ([11]; 250 g of a.i./ha) was 90%.
